# pIC50: −log10 of the molar value.
# Experiments:
# Type in all cases: cell-based
# HTT mRNA = experiment: Gene panel canonical junction qPCR assay, decrease in CJ mRNA, Table 3
# In short: (§1)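 IC50 is the concentration giving 50% response in decrease of the canonical junction transcript, fitted with a 4-parameter logistic equation. Transcripts were quantified by RT-qPCR in A673 or K562 cells after 24 h exposure to compounds dosed up to 10 uM in 3-fold steps.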
# MYB mRNA = experiment: as above
# In short: as §1
# SMN2 mRNA = experiment: as above
# In short: as §1
# [1] = test system: SH-SY5Y (human neuroblastoma) cells; experiment: Cell viability, Cell Titer Glo 2.0 assay; conditions: read-out: Viability SHSY5Y.3 GI50
# In short: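 Steps: serial DMSO dilution of compound, 1:100 dilution into medium, addition to cells (0.1% DMSO final). Incubate 72 h at 37 °C, 5% CO2. Assay with CellTiter-Glo 2.0 reagent.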
# [2] = decrease in canonical junction (CJ) mRNA, gene panel qPCR, Table 3
# [3] = decrease in CJ mRNA levels, canonical junction qPCR, gene panel
SMILES,pIC50 (HTT mRNA; [2]),pIC50 (MYB mRNA; [2]),pIC50 (SMN2 mRNA; [2]),GI50 [1],pIC50 (HTT mRNA; [3]),pIC50 (MYB mRNA; [3]),pIC50 (SMN2 mRNA; [3])
"CCNC1CCN(c2ccc(C(=O)Nc3cc4cn(C)nc4cc3O)c3[nH]ccc23)CC1 [Compound 190, 4-[4-(ethylamino)-1-piperidyl]-N-(6-hydroxy-2-methyl-indazol-5-yl)-1H-indole-7-carboxamide]",< 5.00,< 5.00,< 5.00,> 10 µM,–,–,–
"Cc1cn2cc(NC(=O)c3ccc(N4CCNCC4=O)c4[nH]cnc34)cc(F)c2n1 [Compound 257, N-(8-fluoro-2-methyl-imidazo[1,2-a]-pyridin-6-yl)-7-(2-oxopiperazin-1-yl)-1H-benzimidazole-4-carboxamide]",< 5.00,< 5.00,5.00 to 6.00,> 10 µM,–,–,–
"COc1c(NC(=O)c2c(F)cc(N3CCNCC3)c3cn[nH]c23)cn2cc(C)nc2c1F [Compound 607, 6-fluoro-N-(8-fluoro-7-methoxy-2-methyl-imidazo[1,2-a]pyridin-6-yl)-4-piperazin-1-yl-1H-indazole-7-carboxamide]",–,–,–,0.1 to 1 µM,6.00 to 7.00,> 7.00,> 7.00
"CCNC1CCN(c2ccc(C(=O)Nc3cc(F)c4nc(CC)cn4c3)c3nn(C)cc23)CC1 [Compound 201, 4-[4-(ethylamino)-1-piperidyl]-N-(2-ethyl-8-fluoro-imidazo[1,2-a]pyridin-6-yl)-2-methyl-indazole-7-carboxamide]",5.00 to 6.00,5.00 to 6.00,6.00 to 7.00,1 to 10 µM,–,–,–
"CN[C@H]1CCN(c2c(O)cc(C(=O)Nc3cc(F)c4nc(C)cn4c3)c3nn(C)cc23)C1 [Compound 149, N-(8-fluoro-2-methyl-imidazo[1,2-a]pyridin-6-yl)-5-hydroxy-2-methyl-4-[(3S)-3-(methylamino)pyrrolidin-1-yl]-indazole-7-carboxamide]",5.00 to 6.00,5.00 to 6.00,6.00 to 7.00,1 to 10 µM,–,–,–
"CCNC1CCN(c2ccc(C(=O)Nc3cc(F)c4nc(C)oc4c3)c3nn(C)cc23)CC1 [Compound 200, 4-(4-(ethylamino)piperidin-1-yl)-N-(4-fluoro-2-methylbenzo[d]-oxazol-6-yl)-2-methyl-2H-indazole-7-carboxamide]",6.00 to 7.00,6.00 to 7.00,> 7.00,0.1 to 1 µM,–,–,–
"Cc1cn2cc(NC(=O)c3c(F)cc(N4CCNCC4)c4occc34)cc(F)c2n1 [Compound 247, 5-fluoro-N-(8-fluoro-2-methylimidazo-[1,2-a]pyridin-6-yl)-7-piperazin-1-yl-benzofuran-4-carboxamide]",< 5.00,< 5.00,5.00 to 6.00,1 to 10 µM,–,–,–
"CCNC1CCN(c2ccc(C(=O)Nc3cc(C)c4nc(C)cn4n3)c3nn(C)cc23)CC1 [Compound 186, N-(2,8-dimethylimidazo [1,2-b]pyridazin-6-yl)-4-[4-(ethylamino)-1-piperidyl]-2-methyl-indazole-7-carboxamide]",6.00 to 7.00,6.00 to 7.00,6.00 to 7.00,0.1 to 1 µM,–,–,–

# Now from value to compound:
pIC50 (HTT mRNA; [2]),pIC50 (MYB mRNA; [2]),pIC50 (SMN2 mRNA; [2]),GI50 [1],pIC50 (HTT mRNA; [3]),pIC50 (MYB mRNA; [3]),pIC50 (SMN2 mRNA; [3]),SMILES
< 5.00,6.00 to 7.00,> 7.00,1 to 10 µM,–,–,–,"Cc1cn2cc(NC(=O)c3c(F)cc(N4CC[C@H](NCC56CC(CO5)C6)C4)c4cn(C)nc34)cc(F)c2n1 [Compound 157, 6-fluoro-N-(8-fluoro-2-methyl-imidazo[1,2-a]pyridin-6-yl)-2-methyl-4-[(3S)-3-(2-oxabicyclo[2.1.1]hexan-1-ylmethylamino)pyrrolidin-1-yl]indazole-7-carboxamide]"
> 7.00,> 7.00,> 7.00,< 0.1 µM,–,–,–,"CNC1(C)CCN(c2ccc(C(=O)Nc3cn4cc(C)nc4c(OC)n3)c3nn(C)cc23)CC1 [Compound 197, N-(8-methoxy-2-methylimidazo[1,2-a]pyrazin-6-yl)-2-methyl-4-(4-methyl-4-(methylamino)piperidin-1-yl)-2H-indazole-7-carboxamide]"
< 5.00,6.00 to 7.00,> 7.00,1 to 10 µM,–,–,–,"COCCN[C@@H]1CCN(c2ccc(C(=O)Nc3cc(F)c4nc(C)cn4c3)c3nn(C)cc23)C1 [Compound 113, N-(8-fluoro-2-methyl-imidazo[1,2-a]pyridin-6-yl)-4-[(3R)-3-(2-methoxyethylamino)pyrrolidin-1-yl]-2-methyl-indazole-7-carboxamide]"
6.00 to 7.00,> 7.00,> 7.00,< 0.1 µM,–,–,–,"Cc1cn2cc(NC(=O)c3ccc(N4CCC(NC5CC5)CC4)c4cc(C)nn34)cc(F)c2n1 [Compound 209, 4-[4-(cyclopropylamino)-1-piperidyl]-N-(8-fluoro-2-methyl-imidazo[1,2-a]pyridin-6-yl)-2-methyl-pyrazolo[1,5-a]pyridine-7-carboxamide]"
5.00 to 6.00,< 5.00,< 5.00,0.1 to 1 µM,–,–,–,"CCNC1CCN(c2ccc(C(=O)Nc3cc(F)c4nc(C(C)C)cn4c3)c3nn(C)cc23)CC1 [Compound 177, 4-[4-(ethylamino)-1-piperidyl]-N-(8-fluoro-2-isopropyl-imidazo[1,2-a]pyridin-6-yl)-2-methyl-indazole-7-carboxamide]"
5.00 to 6.00,> 7.00,> 7.00,0.1 to 1 µM,–,–,–,"Cn1cc2cc(NC(=O)c3c(O)cc(N4CC[C@@H](NC5CC5)C4)c4cn(C)nc34)cc(F)c2n1 [Compound 291, 4-[(3R)-3-(cyclopropylamino)pyrrolidin-1-yl]-N-(7-fluoro-2-methyl-indazol-5-yl)-6-hydroxy-2-methyl-indazole-7-carboxamide]"
5.00 to 6.00,6.00 to 7.00,> 7.00,1 to 10 µM,–,–,–,"CN[C@@H]1C[C@@H](C)N(c2ccc(C(=O)Nc3cc(F)c4nc(C)cn4c3)c3nn(C)cc23)C1 [Compound 129, N-(8-fluoro-2-methyl-imidazo[1,2-a]pyridin-6-yl)-2-methyl-4-[(2R,4R)-2-methyl-4-(methylamino)pyrrol-idin-1-yl]indazole-7-carboxamide]"
< 5.00,< 5.00,< 5.00,1 to 10 µM,–,–,–,"CCNC1CCN(c2ccc(C(=O)Nc3cc(F)c4nc(C)c(C)n4c3)c3nn(C)cc23)CC1 [Compound 188, 4-[4-(ethylamino)-1-piperidyl]-N-(8-fluoro-2,3-dimethyl-imidazo[1,2-a]pyridin-6-yl)-2-methyl-indazole-7-carboxamide]"
< 5.00,< 5.00,< 5.00,> 10 µM,–,–,–,Cc1cn2cc(NS(=O)(=O)c3ccc(N4C[C@@H](C)N[C@@H](C)C4)c4cn(C)nc34)cc(F)c2n1 [Compound 279]
< 5.00,< 5.00,< 5.00,> 10 µM,–,–,–,"Cc1cn2cc(NC(=O)c3ccc(N4C[C@@H](C)N[C@@H](C)C4)c4nnn(C)c34)cc(F)c2n1 [Compound 261, 7-[(3R,5S)-3,5-dimethylpiperazin-1-yl]-N-(8-fluoro-2-methyl-imidazo[1,2-a]pyridin-6-yl)-3-methyl-benzotriazole-4-carboxamide]"
5.00 to 6.00,5.00 to 6.00,6.00 to 7.00,1 to 10 µM,–,–,–,"Cc1cn2cc(NC(=O)c3ccc(N4C[C@@H](C)N[C@@H](C)C4)c4[nH]c(C)nc34)cc(F)c2n1 [Compound 225, 7-[(3R,5S)-3,5-dimethylpiperazin-1-yl]-N-(8-fluoro-2-methylimidazo[1,2-a]pyridin-6-yl)-2-methyl-1H-1,3-benzodiazole-4-carboxamide]"
